Laboratory results published in the NIST ThermoML archive (doi:10.1021/je500110d).
± gives the expanded uncertainty stated by the source. Each block holds one compound with its values, some of them ahead of it.

Tests used:
[1] = Molar enthalpy of transition or fusion; details: Crystal; DSC
[2] = 298.15 K, Liquid, Gas chromatography
[3] = 298.15 K, Metastable liquid, Gas chromatography

SMILES: CCCCOC(=O)c1ccccc1C(=O)OCc1ccccc1 [benzyl butyl 1,2-benzenedioate]
- vapor or sublimation pressure [2]: 2e-07 ± 1e-07 kPa

SMILES: CCCCC(CC)COC(=O)c1ccc(C(=O)OCC(CC)CCCC)cc1 (configuration not stated) [bis(2-ethylhexyl) terephthalate]
- vapor or sublimation pressure [2]: 5.4e-09 ± 1e-08 kPa

SMILES: CCCCOC(=O)c1ccccc1C(=O)OCCCC [dibutyl phthalate]
- vapor or sublimation pressure (333.2 K, Liquid, Transpiration method): 0.000224 ± 9e-06 kPa
- vapor or sublimation pressure (338.4 K, Liquid, Transpiration method): 0.000365 ± 1.4e-05 kPa
- vapor or sublimation pressure (343.4 K, Liquid, Transpiration method): 0.000586 ± 2.3e-05 kPa
- vapor or sublimation pressure (348 K, Liquid, Transpiration method): 0.000838 ± 3.3e-05 kPa
- vapor or sublimation pressure (353.6 K, Liquid, Transpiration method): 0.0014 ± 5e-05 kPa
- vapor or sublimation pressure (358.7 K, Liquid, Transpiration method): 0.00215 ± 8e-05 kPa
- vapor or sublimation pressure (363.7 K, Liquid, Transpiration method): 0.00316 ± 0.00012 kPa
- vapor or sublimation pressure (368.7 K, Liquid, Transpiration method): 0.00459 ± 0.00018 kPa
- vapor or sublimation pressure (373.6 K, Liquid, Transpiration method): 0.00675 ± 0.00026 kPa
- vapor or sublimation pressure (378.5 K, Liquid, Transpiration method): 0.00948 ± 0.00037 kPa

SMILES: O=C(OC1CCCCC1)c1ccccc1C(=O)OC1CCCCC1 [dicyclohexyl phthalate]
- vapor or sublimation pressure [3]: 8e-08 ± 2e-08 kPa
- Triple point temperature (Crystal, DTA): 336.5 ± 0.7 K
- Molar enthalpy of transition or fusion [1]: 7.72 ± 0.693 kcal/mol

- vapor or sublimation pressure [3]: 2.14e-07 ± 3.1e-08 kPa
SMILES: COC(=O)c1ccc(C(=O)OC)cc1 [dimethyl 1,4-benzenedicarboxylate]

SMILES: CCCCCCCCOC(=O)c1ccccc1C(=O)OCCCCCCCC [dioctyl 1,2-benzenedicarboxylate]
- vapor or sublimation pressure [2]: 5.5e-09 ± 1.1e-08 kPa
